ChEMBL document CHEMBL3351436, “Structure-activity studies of (-)-epigallocatechin gallate derivatives as HCV entry inhibitors” (Bioorg Med Chem Lett, 2014)
Active and inactive are the calls of the source. No cut-off for these calls is given here.

Key:
Hepatitis C virus [1] = test: Antiviral activity against HCV genotype 1a assessed as inhibition of viral entry into Huh7 cells treated at 50 uM for 2 hr followed by 28 hrs incubation period in compound-free medium by immunofluorescence assay; format: functional, cell-based; conditions: Hepacivirus hominis, subtype 1a, Huh-7
[2] = Cytotoxicity against human HuH7 cells assessed as reduction cell viability up to 1 mM after 48 to 72 hrs by MTS assay; format: cell-based; conditions: huh-7
Hepatitis C virus [3] = test: Antiviral activity against HCV genotype 1a assessed as inhibition of viral entry into Huh7 cells treated for 2 hr followed by 28 hrs incubation period in compound-free medium by immunofluorescence assay; format: functional, cell-based, Hepacivirus hominis; conditions: subtype 1a, Huh-7

| Compound | inhibition (Hepatitis C virus [1]) | Activity [2] | IC50 (Hepatitis C virus [3]) [µM] |
| --- | --- | --- | --- |
| O=C(O[C@@H]1Cc2ccccc2O[C@@H]1c1ccccc1)c1cc(O)c(O)c(O)c1 (racemic) | inactive |  |  |
| O=C(O[C@@H]1Cc2c(O)cc(O)cc2O[C@@H]1c1cc(O)c(O)c(O)c1)c1ccccc1 | Active | Non-toxic | 27 |
| CC1Oc2ccc(C#N)cc2C=C1C(=O)NC1CCNCC1 (centres undefined) | inactive |  |  |
| CC1Oc2ccc(C#N)cc2C=C1C(=O)N[C@H]1CC[C@@H](N)CC1 (some centres undefined) | inactive |  |  |
| O=C(O[C@@H]1Cc2c(O)cc(O)cc2O[C@@H]1c1cc(O)c(O)c(O)c1)c1ccc(F)c(F)c1 | Active | Non-toxic | 6.9 |
| O=C(O[C@@H]1Cc2c(O)cc(O)cc2O[C@H]1c1cc(O)c(O)c(O)c1)c1cc(O)c(O)c(O)c1 | Active |  |  |
| O=C(O[C@@H]1Cc2c(O)cc(O)cc2O[C@@H]1c1cc(O)c(O)c(O)c1)c1cc(O)c(O)c(O)c1 [EPIGALOCATECHIN GALLATE] | Active |  | 20 |
| O=C(O[C@@H]1Cc2c(O)cc(O)cc2O[C@@H]1c1cc(O)c(O)c(O)c1)c1ccncc1 | inactive |  |  |
| O=C(O[C@H]1Cc2c(O)cc(O)cc2O[C@@H]1c1ccccc1)c1cc(O)c(O)c(O)c1 (racemic) | inactive |  |  |
